Tests used:
[1] = test system: Janus kinase 2 (Jak2); assay: attenuation of Compound A effects by Jak2 inhibitor; conditions: both in vitro and in vivo
From the text: (§1) All of these events were reported to be important in the development of Cerebral Malaria (CM).

[2] = test system: TNF; assay: TNF expression
From the text: as §1

[3] = test system: ICAM-1; assay: TNFα-induced production of ICAM-1 in human brain microvascular endothelial cells; assay type: cell-based; conditions: TNF-treated human brain microvascular endothelial cells (MVECs)
From the text: as §1

[4] = test system: VCAM-1; assay: TNFα-induced production of VCAM-1 in human brain microvascular endothelial cells; assay type: cell-based; conditions: TNF-treated human brain microvascular endothelial cells (MVECs)
From the text: as §1

[5] = test system: hippocampal neurogenesis; assay: hippocampal neurogenesis in vivo; conditions: 1 week treatment, 2H2O label
[6] = test system: microglia; assay: LPS-induced microglial inflammation in vivo; conditions: LPS 1 mg/kg i.p. on days 1, 3 and 5
Procedure: Animals were treated with either vehicle and 8% 2H2O label for 1 week. LPS (1 mg/kg, i.p) was injected on days 1, 3 and 5 of drug treatment and label. Microglia were isolated from brain and sorted by flow cytometry as CD11b+, F4/80+ cells. DNA was isolated from sorted microglia cells, hydrolyzed and derivatized for GC/MS analyses.

[7] = test system: more than 60 receptors and enzymes
[8] = test system: sepsis-induced death; assay: sepsis-induced death in rodents (survival study); assay type: in vivo
Procedure: FIG. 5 is a graph showing results of a study that indicates α7 agonists can prevent sepsis-induced death in rodents. Survival was monitored daily from day 0 to day 6. In the vehicle control group there was a 13% survival by day 6. In the animals treated with 0.003 mg/kg Compound B, there was a 13% survival by day (NS, p=0.360). In the animals treated with 0.03 mg/kg Compound B, there was also a 13% survival by day (NS, p=0.528). […] Survival was 47% in this group, a significant improvement in survival (p=0.005).

## N#C/C(=C/c1ccc(O)c(O)c1)C(=O)NCc1ccccc1 [AG-490]
[1]
  effect on the effects of Compound A: attenuates the effects of Compound A

## Cc1ccc(C(=O)N[C@@H]2C3CCN(CC3)[C@H]2Cc2cccnc2)s1 [Compound A, (2S,3R)-N-(2-((3-pyridinyl)methyl)-1-azabicyclo[2.2.2]oct-3-yl)-5-methylthiophene-2-carboxamide]
[2]
  TNF expression: significantly inhibits TNF expression
[3]
  levels of ICAM-1 expression: decreases the levels of ICAM-1 and VCAM-1 expression
[4]
  levels of VCAM-1 expression: decreases the levels of ICAM-1 and VCAM-1 expression
[5]
  hippocampal neurogenesis: promotes hippocampal neurogenesis in vivo
[6]
  microglial inflammation: prevents microglial inflammation in vivo
[7]
  separation with other targets: 100-1000

## O=C(N[C@@H]1C2CCN(CC2)[C@H]1Cc1cccnc1)c1cc2ccccc2o1 [Compound B, (2S,3R)-N-(2-((3-pyridinyl)methyl)-1-azabicyclo[2.2.2]oct-3-yl)benzofuran-2-carboxamide]
[8]; 0.003 mg/kg, NS, p=0.360, vehicle control 13%
  survival by day 6: 13%
[8]; 0.03 mg/kg, NS, p=0.528, vehicle control 13%
  survival by day 6: 13%
[8]; 0.3 mg/kg, p=0.005, vehicle control 13%
  survival by day 6: 47%

From US20090239901A1, “METHOD AND COMPOSITIONS FOR TREATMENT OF CEREBRAL MALARIA” (priority 2008, published 2009)
